Values quoted from earlier work, collected in patent publication US20250032494A1, “A COMBINATION TREATMENT FOR CANCER” (My Personal Therapeutics LTD, priority 2021, published 2025).

Assays:
[1] = patients; with and without co-administration of DMARDs
[2] = test system: tumors with the BRAF V600 mutation; conditions: both in vitro and in vivo
[3] = patients; versus cytotoxic active controls dacarbazine or paclitaxel

Row | Structure (SMILES) | improvement over placebo [1] | cell growth of tumors with the BRAF V600 mutation [2] | progression-free survival [3]
1 | CCOc1cc([C@@H](CS(C)(=O)=O)N2C(=O)c3cccc(NC(C)=O)c3C2=O)ccc1OC [Apremilast] | statistically significant improvement over placebo |  | 
2 | CC(=O)Nc1cccc(-n2c(=O)n(C3CC3)c(=O)c3c(Nc4ccc(I)cc4F)n(C)c(=O)c(C)c32)c1 [Trametinib] |  | inhibits cell growth | statistically significant increase in progression-free survival
